Drawing on the supplement of paper PMC7455731, this text covers collision cross section for 52 molecules.

A short description of the series: collision cross section (DTIM-MS, N2); higher = larger ion. The method, then:
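Collision cross section (CCS) of drug and natural-product chemical standards (validation set 2, measured in this paper). Three independent measurements were made across 2 months; the value taken is their mean (avg_ccs), for the ion adduct given.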

As to `COC1=CC(=O)O[C@@H](CCc2ccccc2)C1` [Dihydrokavain], the collision cross section (ion adduct: [M+H]+) was 149.11 Å².

`Cc1ncc([N+](=O)[O-])n1C` [Dimetridazole] displayed a collision cross section (ion adduct: [M+H]+) of 127.62 Å².

Consider `C[C@H]1CC[C@]2(OC1)O[C@H]1C[C@H]3[C@@H]4CC=C5C[C@@H](O[C@@H]6O[C@H](CO)[C@@H](O[C@@H]7O[C@@H](C)[C@H](O)[C@@H](O)[C@H]7O)[C@H](O)[C@H]6O[C@@H]6O[C@@H](C)[C@H](O)[C@@H](O)[C@H]6O)CC[C@]5(C)[C@H]4CC[C@]3(C)[C@H]1[C@@H]2C` [Dioscin], for which the collision cross section by setting is: (ion adduct: [M+H]+) 330.49 Å²; (ion adduct: [M-H]-) 324.15 Å².

`C[C@H]1CC[C@]2(OC1)O[C@H]1C[C@H]3[C@@H]4CC=C5C[C@@H](O)CC[C@]5(C)[C@H]4CC[C@]3(C)[C@H]1[C@@H]2C` [Diosgenin] returned a collision cross section (ion adduct: [M+H]+) of 209.65 Å².

For the molecule `COc1cc(O)ccc1/C=C/C(=O)c1ccc(O)cc1` [Echinatin], the collision cross section worked out at 167.45 Å² (ion adduct: [M+H]+) and 171.54 Å² (ion adduct: [M-H]-).

`C=CCc1cc(OC)c(OC)c(OC)c1` [Elemicin] gave a collision cross section (ion adduct: [M+H]+) of 144.76 Å².

Take `Cc1cc(O)c2c(c1)C(=O)c1cc(O)cc(O)c1C2=O` [Emodin]: the collision cross section runs as follows: (ion adduct: [M+H]+) 156.69 Å²; (ion adduct: [M-H]-) 155.06 Å².

Turning to `CCOc1cc(NC(C)=O)ccc1C(=O)OC` [Ethopabate], the collision cross section by setting is: (ion adduct: [M+H]+) 151.13 Å²; (ion adduct: [M-H]-) 158.16 Å².

`CCOC(=O)c1ccc(O)c(OC)c1` [Ethyl Vanillate]: for the setting “ion adduct: [M-H]-”, the collision cross section was 144.12 Å².

In the case of `CCOC(=O)c1cc2ccccc2oc1=O` [Ethyl coumarin-3-carboxylate], the collision cross section (ion adduct: [M+H]+) came to 141.92 Å².

In the case of `CCOc1cc(C=O)ccc1O` [Ethyl vanillin], the collision cross section (ion adduct: [M-H]-) was 133.69 Å².

Take `COc1cc([C@@H]2c3cc4c(cc3[C@@H](O[C@@H]3O[C@@H]5CO[C@@H](C)O[C@H]5[C@H](O)[C@H]3O)C3COC(=O)C32)OCO4)cc(OC)c1O` (stereo partly specified) [Etoposide]: the collision cross section (ion adduct: [M+H]+) is 250.54 Å².

In turn, `COc1ccc(C=CC(=O)c2c(O)cc(OC)cc2OC)cc1` [Flavokawain A] came in with a collision cross section (ion adduct: [M+H]+) of 176.36 Å² and a collision cross section (ion adduct: [M-H]-) of 184.75 Å².

For the molecule `O=C(O)c1ccccc1Nc1cccc(C(F)(F)F)c1` [Flufenamic acid], the collision cross section is, setting by setting: (ion adduct: [M+H]+) 159.39 Å²; (ion adduct: [M-H]-) 160.69 Å².

Molecule `Nc1[nH]c(=O)ncc1F` [Fluorocytosine] had a collision cross section (ion adduct: [M+H]+) of 119.97 Å².

In the case of `Nc1ccn([C@@H]2O[C@H](CO)[C@@H](O)C2(F)F)c(=O)n1` [Gemcitabine], the collision cross section (ion adduct: [M+H]+) was found to be 155.86 Å².

As for `COC(=O)C1=CO[C@@H](O[C@@H]2O[C@H](CO)[C@@H](O)[C@H](O)[C@H]2O)[C@@H]2C(CO)=CC[C@H]12` [Geniposide], the collision cross section (ion adduct: [M-H]-) was found to be 184.6 Å².

Turning to `O=C(O)C1=CO[C@@H](O[C@@H]2O[C@H](CO)[C@@H](O)[C@H](O)[C@H]2O)[C@@H]2C(CO)=CC[C@H]12` [Geniposidic acid], the collision cross section (ion adduct: [M-H]-) stood at 184.17 Å².

As to `O=c1c(-c2ccc(O)cc2)coc2cc(O[C@@H]3O[C@H](CO)[C@@H](O)[C@H](O)[C@H]3O)cc(O)c12` [Genistin], the collision cross section reads like this: (ion adduct: [M+H]+) 207.07 Å²; (ion adduct: [M-H]-) 213.76 Å².

As to `COc1cc(O)c2c(=O)cc(-c3ccc(O)cc3)oc2c1` [Genkwanin], the collision cross section runs as follows: (ion adduct: [M+H]+) 163.54 Å²; (ion adduct: [M-H]-) 166.12 Å².

`CC(C)=C1C/C=C(\C)CC/C=C(\C)CC1=O` [Germacrone] displayed a collision cross section (ion adduct: [M+H]+) of 149.53 Å².

`C=C1C[C@]23C[C@@]1(O)CC[C@H]2[C@@]12C=C[C@H](O)[C@@](C)(C(=O)O1)[C@H]2[C@@H]3C(=O)O` [Gibberellic acid]: the collision cross section (ion adduct: [M-H]-) is 177.69 Å².

On to `CCCCCCCCCCCCCCCc1cccc(O)c1C(=O)O` [Ginkgolic<U+00A0>Acid<U+00A0>C15:0<U+00A0>], for which, where the note is “ion adduct: [M-H]-”, the collision cross section is on record as 190.92 Å².

As to `CC(C)=CCC[C@](C)(O[C@@H]1O[C@H](CO)[C@@H](O)[C@H](O)[C@H]1O)[C@H]1CC[C@]2(C)[C@@H]1[C@H](O)C[C@@H]1[C@@]3(C)CC[C@H](O)C(C)(C)[C@@H]3CC[C@]12C` [Ginsenoside Compound K], for the setting “ion adduct: [M-H]-”, the collision cross section came to 257.91 Å².

Regarding `CC(C)=CCC[C@](C)(O[C@@H]1O[C@H](CO)[C@@H](O)[C@H](O)[C@H]1O)[C@H]1CC[C@]2(C)[C@@H]1[C@H](O)C[C@@H]1[C@@]3(C)CC[C@H](O)C(C)(C)[C@@H]3[C@@H](O)C[C@]12C` [Ginsenoside F1], where the note is “ion adduct: [M-H]-”, the collision cross section is on record as 259.18 Å².

On to `CC(C)=CCC[C@](C)(O)[C@H]1CC[C@]2(C)[C@@H]1[C@H](O)C[C@@H]1[C@@]3(C)CC[C@H](O)C(C)(C)[C@@H]3[C@@H](O[C@@H]3O[C@H](CO)[C@@H](O)[C@H](O)[C@H]3O)C[C@]12C` [Ginsenoside Rh1], for which, for the setting “ion adduct: [M-H]-”, the collision cross section was 266.62 Å².

The molecule `CC1(C)CC[C@]2(C(=O)O[C@@H]3O[C@H](CO)[C@@H](O)[C@H](O)[C@H]3O)CC[C@]3(C)C(=CC[C@@H]4[C@@]5(C)CC[C@H](O[C@@H]6O[C@H](C(=O)O)[C@@H](O)[C@H](O)[C@H]6O[C@@H]6O[C@H](CO)[C@@H](O)[C@H](O)[C@H]6O)C(C)(C)[C@@H]5CC[C@]43C)[C@@H]2C1` [Ginsenoside Ro] had a collision cross section (ion adduct: [M-H]-) of 310.46 Å².

Regarding `CC1(C)C=Cc2c(ccc3c2OC[C@@H](c2ccc(O)cc2O)C3)O1` [Glabridin], the collision cross section was found to be 180.63 Å² (ion adduct: [M+H]+) and 184.46 Å² (ion adduct: [M-H]-).

On to `CC1(C)[C@@H](O[C@H]2O[C@H](C(=O)O)[C@@H](O)[C@H](O)[C@H]2OC2O[C@H](C(=O)O)[C@@H](O)[C@H](O)[C@H]2O)CC[C@]2(C)[C@H]3C(=O)C=C4[C@@H]5C[C@@](C)(C(=O)O)CC[C@]5(C)CC[C@@]4(C)[C@]3(C)CC[C@@H]12` (stereo partly specified) [Glycyrrhizic acid], for which the collision cross section (ion adduct: [M+H]+) turned out to be 287.67 Å² and the collision cross section (ion adduct: [M-H]-) stood at 281.13 Å².

Turning to `O=C1CCc2ccccc2O1` [Hydrocoumarin], the collision cross section (ion adduct: [M-H]-) worked out at 127.47 Å².

The molecule `COc1ccc2c(c1)c(CC(=O)O)c(C)n2C(=O)c1ccc(Cl)cc1` [Indometacin] came in with a collision cross section (ion adduct: [M+H]+) of 181.26 Å².

Where the note is “ion adduct: [M-H]-”, `CC1=CC23C(=O)C(C=C(CO)C(O)C2(O)C1O)C1C(CC3C)C1(C)C` (stereo unspecified) [Ingenol] gave a collision cross section of 184.41 Å².

Molecule `CC(C)NC(=O)N1CC(=O)N(c2cc(Cl)cc(Cl)c2)C1=O` [Iprodione] had a collision cross section (ion adduct: [M+H]+) of 180.27 Å².

In turn, `CC=Cc1ccc(O)c(OC)c1` [Isoeugenol] displayed a collision cross section (ion adduct: [M-H]-) of 138.02 Å².

In the case of `COc1ccc(-c2cc(=O)c3c(O)cc(O)c(-c4cc(-c5cc(=O)c6c(O)cc(O)cc6o5)ccc4OC)c3o2)cc1` [Isoginkgetin], the collision cross section by setting is: (ion adduct: [M+H]+) 231.51 Å²; (ion adduct: [M-H]-) 230.78 Å².

As for `COc1ccc(CC2c3cc(Oc4cc(CC5c6cc(O)c(OC)cc6CCN5C)ccc4O)c(OC)cc3CCN2C)cc1` (stereo unspecified) [Isoliensinine], the collision cross section was 238.39 Å² (ion adduct: [M+H]+) and 232.33 Å² (ion adduct: [M-H]-).

Take `COc1cc(C2Oc3ccc(C4Oc5cc(O)cc(O)c5C(=O)C4O)cc3OC2CO)ccc1O` (stereo unspecified) [Isosilybin]: the collision cross section (ion adduct: [M+H]+) was 214.42 Å².

`C[C@@]12CCC3[C@@](CC[C@@H]4[C@](C)(C(=O)O)CCC[C@@]34C)(CC1=O)C2` (stereo partly specified) [Isosteviol]: the collision cross section runs as follows: (ion adduct: [M+H]+) 180.22 Å²; (ion adduct: [M-H]-) 180.18 Å².

On to `COC1=CC(=O)O[C@@H](/C=C/c2ccccc2)C1` [Kawain], for which the collision cross section (ion adduct: [M+H]+) is reported as 150.52 Å².

As for `C=CC(C)(C)c1cc(/C=C/C(=O)c2ccc(O)cc2)c(OC)cc1O` [Licochalcone A], the collision cross section (ion adduct: [M+H]+) came to 191.26 Å² and the collision cross section (ion adduct: [M-H]-) stood at 194.56 Å².

Turning to `COc1c(C=CC(=O)c2ccc(O)cc2)ccc(O)c1O` [Licochalcone B], the collision cross section by setting is: (ion adduct: [M+H]+) 170.36 Å²; (ion adduct: [M-H]-) 171.14 Å².

Turning to `O=C1C[C@@H](c2ccc(O)cc2)Oc2cc(O)ccc21` [Liquiritigenin], the collision cross section by setting is: (ion adduct: [M+H]+) 162 Å²; (ion adduct: [M-H]-) 161.75 Å².

For the molecule `O=c1cc(-c2ccc(O)c(O)c2)oc2cc(O[C@@H]3O[C@H](CO)[C@@H](O)[C@H](O)[C@H]3O)cc(O)c12` [Luteolin-7-O-glucoside], the collision cross section reads like this: (ion adduct: [M+H]+) 209.01 Å²; (ion adduct: [M-H]-) 210.14 Å².

Consider `OC[C@@H](O)[C@@H](O[C@H]1O[C@H](CO)[C@@H](O)[C@H](O)[C@H]1O)[C@H](O)[C@@H](O)CO` [Maltitol], for which, under “ion adduct: [M-H]-”, the collision cross section is listed as 169.57 Å².

Regarding `Cc1cccc(Nc2ccccc2C(=O)O)c1C` [Mefenamic acid], the collision cross section (ion adduct: [M+H]+) is given as 154.75 Å².

Take `CNC[C@H](O)[C@@H](O)[C@H](O)[C@H](O)CO` [Meglumine]: the collision cross section is 141.05 Å² (ion adduct: [M+H]+) and 139.8 Å² (ion adduct: [M-H]-).

Molecule `COC(=O)/C=C/c1ccc(O)cc1` [Methyl 4-hydroxycinnamate] displayed a collision cross section (ion adduct: [M-H]-) of 139.5 Å².

`COC(=O)c1cc(OC)c(O)c(OC)c1` [Methyl syringate] displayed a collision cross section (ion adduct: [M-H]-) of 146.35 Å².

As for `NC(=O)c1ncn([C@@H]2O[C@H](CO)[C@@H](O)[C@H]2O)c1O` [Mizoribine], under “ion adduct: [M-H]-”, the collision cross section is on record as 155.14 Å².

Molecule `C[C@@H]1O[C@@H](Oc2c(-c3cc(O)c(O)c(O)c3)oc3cc(O)cc(O)c3c2=O)[C@H](O)[C@H](O)[C@H]1O` [Myricitrin] returned a collision cross section (ion adduct: [M-H]-) of 199.23 Å².

On to `COc1cc(C=CC(=O)NCCc2ccc(O)cc2)ccc1O` [N-trans-Feruloyltyramine], for which the collision cross section (ion adduct: [M+H]+) worked out at 181.28 Å² and the collision cross section (ion adduct: [M-H]-) amounted to 176.36 Å².

For the molecule `CC1CCC=C2C(=O)CC3OOC(C)(C)C3C21C` (stereo unspecified) [Nardosinone], under “ion adduct: [M-H]-”, the collision cross section is 156.3 Å².
